Experimental data: article PMC3903666 (Analytical biochemistry, 2012)
Structures can show the parent of a compound that is named as a salt.

Key:
[1] = target: T1, Af SidA (Aspergillus fumigatus, UniProt E9QYP0); experiment: Fluorescence polarization displacement assay in high throughput screening; type: binding; details: 10 μM compound, 2 μM Af SidA, 30 nM chromophore 4, 2% DMSO
[2] = target: T1, Af SidA; experiment: Ornithine hydroxylation activity assay and inhibition of Af SidA; type: biochemical
[3] = target: T1, Af SidA; experiment: Fluorescence polarization binding assay, Af SidA
[4] = target: KMO (kynurenine 3-monooxygenase) (Pseudomonas fluorescens, UniProt Q84HF5); experiment: Fluorescence polarization binding assay, KMO
Chain of KMO (kynurenine 3-monooxygenase) (Q84HF5 whole entry): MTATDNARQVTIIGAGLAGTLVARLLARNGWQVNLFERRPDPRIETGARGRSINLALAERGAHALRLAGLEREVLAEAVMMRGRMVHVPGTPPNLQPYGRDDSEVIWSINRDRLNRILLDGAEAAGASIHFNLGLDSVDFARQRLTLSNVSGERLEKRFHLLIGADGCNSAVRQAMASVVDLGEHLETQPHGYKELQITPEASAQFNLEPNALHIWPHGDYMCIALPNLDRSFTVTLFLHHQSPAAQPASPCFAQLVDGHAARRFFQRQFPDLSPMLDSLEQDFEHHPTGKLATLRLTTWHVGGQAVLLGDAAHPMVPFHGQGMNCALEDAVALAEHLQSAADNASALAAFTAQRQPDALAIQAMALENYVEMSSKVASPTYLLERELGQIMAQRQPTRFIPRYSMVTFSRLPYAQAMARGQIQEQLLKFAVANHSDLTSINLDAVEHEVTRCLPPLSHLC

[5] = target: T1, Af SidA; experiment: Fluorescence polarization displacement assay, Af SidA; type: binding

T1 sequence (E9QYP0 whole entry): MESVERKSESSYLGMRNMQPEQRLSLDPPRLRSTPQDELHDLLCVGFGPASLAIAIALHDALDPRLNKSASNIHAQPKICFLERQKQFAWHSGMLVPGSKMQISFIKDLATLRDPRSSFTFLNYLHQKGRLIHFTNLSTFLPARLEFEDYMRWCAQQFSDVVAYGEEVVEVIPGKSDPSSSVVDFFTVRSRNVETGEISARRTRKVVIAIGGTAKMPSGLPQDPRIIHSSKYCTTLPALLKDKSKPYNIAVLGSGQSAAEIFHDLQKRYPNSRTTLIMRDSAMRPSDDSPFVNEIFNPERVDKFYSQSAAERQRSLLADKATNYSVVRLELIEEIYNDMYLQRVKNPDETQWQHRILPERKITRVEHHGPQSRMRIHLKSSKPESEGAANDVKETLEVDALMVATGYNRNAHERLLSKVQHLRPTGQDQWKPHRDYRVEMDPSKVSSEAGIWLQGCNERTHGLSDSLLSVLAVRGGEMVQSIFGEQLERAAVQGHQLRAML

## C[n+]1cc2c3c(ccc2c2ccc4cc5c(cc4c21)OCO5)OCO3 [Sanguinarine, sanguinarine sulfate]
[1]
  decrease of the anisotropy value in the screen: 20%
[2]
  IC50: 500 ± 90 µM
[2]; in the presence of NADPH and ornithine, inhibitor up to 1000 μM
  inhibition of Af SidA activity observed: 100%

## CN(C)c1ccc2c(c1)Oc1cc(N(C)C)ccc1C21OC(=O)c2ccc(C(=O)NCCCCCC(=O)NCCCCCCOP(=O)(O)OP(=O)(O)OCC3OC(n4cnc5c(N)ncnc54)C(O)C3O)cc21 (centres unmarked) [Chromophore 3]
[3]
  Kd: 9 ± 5 µM
[4]
  Kd: 10 ± 2 µM

## CN(C)c1ccc2c(c1)Oc1cc(N(C)C)ccc1C21OC(=O)c2cc(C(=O)NCCCCCC(=O)NCCCCCCOP(=O)(O)OP(=O)(O)OCC3OC(n4cnc5c(N)ncnc54)C(O)C3O)ccc21 (centres unmarked) [Chromophore 4]
[3]
  Kd: 2.1 ± 0.2 µM
[4]
  Kd: 0.6 ± 0.05 µM

## COc1ccc2cc([C@H](C)C(=O)O)ccc2c1 [naproxen]
[5]; negative hit, Figure 9S
  binding to Af SidA: did not bind

## NCCCC[C@H](N)C(=O)O [Lysine, lysine]
[5]
  Kd: 11000 ± 1000 µM

## NCCC[C@H](N)C(=O)O [Ornithine, ornithine]
[5]
  Kd: 4000 ± 1000 µM

## COc1ccc2cc3[n+](cc2c1OC)CCc1cc2c(cc1-3)OCO2 [berberine]
[5]; addition of up to 1 mM compound, Figure 9S
  decrease in anisotropy (specificity of binding to Af SidA): did not produce a decrease in anisotropy similar to sanguinarine
